Experiment [1] relates to CDK8 (phosphorylation of STAT1 at serine 727 in A549 cells). Nature of the experiment: Cell based Phospho-STAT1 assay (IFNγ-stimulated A549 cells, AlphaLISA). To be noted: Homo sapiens, A549, A549 cells, phospho-STAT1 after IFNγ stimulation. Summed up: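 A549 cells given serial compound dilutions for 1 h at 37 °C, then stimulated with IFNγ at 10 ng/mL final for 30 min. Lysate STAT1 Ser727 phosphorylation measured by AlphaLISA; % inhibition vs stimulated/unstimulated DMSO controls, IC50 by nonlinear regression.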
(Alpha assays give light when donor and acceptor beads are brought close together.)

Experiment [2] concerns CDK8 (TCF/LEF luciferase reporter in HCT116 cells). Nature of the experiment: Cell based TCF/LEF reporter assay (HCT116+TCF/LEF luciferase). To be noted: Homo sapiens, HCT-116, 24 h. Summed up: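 Luciferase readout was corrected for viability (CellTiter-Fluor) and scaled between DMSO high and 10 uM CCT251545 low controls, giving IC50 by nonlinear regression. Compounds, serially diluted, were incubated 24 h at 37 °C on HCT116 clones stably expressing a TCF/LEF-driven luciferase reporter.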

The term IC50 denotes the concentration that gives 50% inhibition. Take `Cc1cc(C#N)cc(-c2ccc(-c3cnn4cccc(C#CC(C)(C)O)c34)cc2)c1` [Compound P-0235, 4′-(4-(3-hydroxy-3-methylbut-1-yn-1-yl)pyrazolo[1,5-a]pyridin-3-yl)-5-methyl-[1,1′-biphenyl]-3-carbonitrile]: the IC50 in experiment [1] and in experiment [2] was 100 to 1000 nM in each case.
Take `N#CC1CC=C(c2nccn3ncc(-c4ccc(OCCCN5CCOCC5)cc4)c23)CC1` (centres unmarked) [Compound P-0130, 4-[3-[4-(3-morpholinopropoxy)phenyl]pyrazolo[1,5-a]pyrazin-4-yl]cyclohex-3-ene-1-carbonitrile]: the IC50 in experiment [1] and in experiment [2] was 0.1 to 100 nM each time.
Consider `Cn1cc(-c2ccc(-c3cnc4[nH]ccc4c3C#CC(C)(C)O)cc2)cn1` [Compound P-0341, 2-methyl-4-(5-(4-(1-methyl-1H-pyrazol-4-yl)phenyl)-1H-pyrrolo[2,3-b]pyridin-4-yl)but-3-yn-2-ol], for which the IC50 in experiment [1] and in experiment [2] was 0.1 to 100 nM in each case.
Regarding `CCCS(=O)(=O)Nc1ccc2cc(-c3cnn4ccnc(C5=CCC(C#N)CC5)c34)ccc2c1` (centres unmarked) [Compound P-0060, N-(6-(4-(4-cyanocyclohex-1-en-1-yl)pyrazolo[1,5-a]pyrazin-3-yl)naphthalen-2-yl)propane-1-sulfonamide], the IC50 in experiment [1] and in experiment [2] was 0.1 to 100 nM throughout.
Take `CC(C)(C#Cc1cccn2ncc(-c3ccc(-c4cnn(CC(N)=O)c4)cc3)c12)C(N)=O` [Compound P-0462, 4-(3-(4-(1-(2-amino-2-oxoethyl)-1H-pyrazol-4-yl)phenyl)pyrazolo[1,5-a]pyridin-4-yl)-2,2-dimethylbut-3-ynamide]: the IC50 in experiment [1] and in experiment [2] was 0.1 to 100 nM throughout.
As for `CN(C)CCn1cc(-c2ccc(-c3cnn4ccnc(C5=CCC(C#N)CC5)c34)cc2)cn1` (centres unmarked) [Compound P-0047, 4-[3-[4-[1-(2-dimethylaminoethyl)pyrazol-4-yl]phenyl]pyrazolo[1,5-a]pyrazin-4-yl]cyclohex-3-ene-1-carbonitrile], the IC50 in experiment [1] and in experiment [2] was 0.1 to 100 nM throughout.
On to `N#CC1CCN(c2cccn3ncc(-c4ccc(C(=O)N5CCCC5)cc4)c23)CC1` [Compound P-0257, 1-(3-(4-(pyrrolidine-1-carbonyl)phenyl)pyrazolo[1,5-a]pyridin-4-yl)piperidine-4-carbonitrile], for which the IC50 in experiment [1] and in experiment [2] was 100 to 1000 nM in each case.
As to `CCn1cc(-c2ccc(-c3cnc4[nH]ccc4c3N3CCC(C#N)CC3)cc2)cn1` [Compound P-0173, 1-(5-(4-(1-ethyl-1H-pyrazol-4-yl)phenyl)-1H-pyrrolo[2,3-b]pyridin-4-yl)piperidine-4-carbonitrile], the IC50 in experiment [1] and in experiment [2] was 0.1 to 100 nM throughout.
For `CC(C)(C#Cc1nccn2ncc(-c3ccc(-c4cnn(CCC#N)c4)cc3)c12)C(N)=O` [Compound P-0004, 4-(3-(4-(1-(2-cyanoethyl)-1H-pyrazol-4-yl)phenyl)pyrazolo[1,5-a]pyrazin-4-yl)-2,2-dimethylbut-3-ynamide], the IC50 in experiment [1] and in experiment [2] was 0.1 to 100 nM in each case.
Consider `N#CC1CCN(c2cccn3ncc(-c4ccc(S(=O)(=O)N5CCOCC5)cc4)c23)CC1` [Compound P-0255, 1-(3-(4-(morpholino-sulfonyl)phenyl)pyrazolo[1,5-a]pyridin-4-yl)piperidine-4-carbonitrile], for which the 50% inhibitory concentration (IC50) in experiment [1] and in experiment [2] was 1000 to 10000 nM each time.
Regarding `N#CC1CC=C(c2nccn3ncc(-c4cnn(-c5ccc(F)cc5)c4)c23)CC1` (centres unmarked) [Compound P-0103, 4-(3-(1-(4-fluorophenyl)-1H-pyrazol-4-yl)pyrazolo[1,5-a]pyrazin-4-yl)cyclohex-3-ene-1-carbonitrile], the IC50 in experiment [1] is 0.1 to 100 nM; in experiment [2] it was 100 to 1000 nM.
The matching figures for `CC1=NC2(CCN(c3cccc4ncc(C#Cc5cnn(C)c5)n34)CC2)C(=O)N1` [Compound P-0276, 2-methyl-8-(3-((1-methyl-1H-pyrazol-4-yl)ethynyl)imidazo[1,2-a]pyridin-5-yl)-1,3,8-triazaspiro[4.5]dec-1-en-4-one]: 1000 to 10000 nM and 1000 to 10000 nM.
For `CC(C)(O)Cn1cc(-c2ccc(-c3cnn4ccnc(C5=CCC(C#N)CC5)c34)cc2Cl)cn1` (centres unmarked) [Compound P-0042, 4-(3-(3-chloro-4-(1-(2-hydroxy-2-methylpropyl)-1H-pyrazol-4-yl)phenyl)pyrazolo[1,5-a]pyrazin-4-yl)cyclohex-3-ene-1-carbonitrile], in that order: 0.1 to 100 nM and 0.1 to 100 nM.
The matching figures for `CC(C)(O)Cn1cc2cc(-c3cnn4ccnc(C5=CCC(C#N)CC5)c34)ccc2n1` (centres unmarked) [Compound P-0106, 4-(3-(2-(2-hydroxy-2-methylpropyl)-2H-indazol-5-yl)pyrazolo[1,5-a]pyrazin-4-yl)cyclohex-3-ene-1-carbonitrile]: 0.1 to 100 nM and 100 to 1000 nM.
For the compound `CC(C)(C#Cc1nccn2ncc(-c3ccc(N4CCOCC4)c(F)c3)c12)C(N)=O` [Compound P-0099, 4-(3-(3-fluoro-4-morpholinophenyl)pyrazolo[1,5-a]pyrazin-4-yl)-2,2-dimethylbut-3-ynamide], the IC50 in experiment [1] lay within 0.1 to 100 nM; in experiment [2] it was 100 to 1000 nM.
Regarding `N#CC1CCN(c2c(-c3ccc(-n4ccnn4)cc3)cnc3[nH]ccc23)CC1` [Compound P-0220, 1-(5-(4-(1H-1,2,3-triazol-1-yl)phenyl)-1H-pyrrolo[2,3-b]pyridin-4-yl)piperidine-4-carbonitrile], the IC50 in experiment [1] and in experiment [2] was 0.1 to 100 nM each time.
`N#CC1CCC(c2nccn3ncc(-c4ccc(-c5cnn(CCN6CCOCC6)c5)cc4)c23)CC1` (centres unmarked) [Compound P-0016, (1s,4s)-4-(3-(4-(1-(2-morpholinoethyl)-1H-pyrazol-4-yl)phenyl)pyrazolo[1,5-a]pyrazin-4-yl)cyclohexane-1-carbonitrile]: the IC50 in experiment [1] and in experiment [2] was 0.1 to 100 nM each time.
Turning to `CNC(=O)c1ccc2cc(-c3cnc4[nH]ccc4c3N3CCC(F)(C#N)CC3)ccc2c1` [Compound P-0269, 6-(4-(4-cyano-4-fluoropiperidin-1-yl)-1H-pyrrolo[2,3-b]pyridin-5-yl)-N-methyl-2-naphthamide], the IC50 in experiment [1] and in experiment [2] was 100 to 1000 nM throughout.
For `N#CC1CC=C(c2nccn3ncc(-c4ccc(-c5cnn(CCF)c5)cc4)c23)CC1` (centres unmarked) [Compound P-0036, 4-(3-(4-(1-(2-fluoroethyl)-1H-pyrazol-4-yl)phenyl)pyrazolo[1,5-a]pyrazin-4-yl)cyclohex-3-ene-1-carbonitrile], the IC50 in experiment [1] and in experiment [2] was 0.1 to 100 nM in each case.
As for `CS(=O)(=O)Nc1ccc2cc(-c3cnn4cccc(C5=CCC(C#N)CC5)c34)ccc2n1` (centres unmarked) [Compound P-0150, N-(6-(4-(4-cyanocyclohex-1-en-1-yl)pyrazolo[1,5-a]pyridin-3-yl)quinolin-2-yl)methanesulfonamide], the IC50 in experiment [1] and in experiment [2] was 0.1 to 100 nM throughout.
Turning to `CC(C)(C#Cc1cccn2ncc(-c3ccc(-c4cnn(CCF)c4)cc3)c12)C(N)=O` [Compound P-0466, 4-(3-(4-(1-(2-fluoroethyl)-1H-pyrazol-4-yl)phenyl)pyrazolo[1,5-a]pyridin-4-yl)-2,2-dimethylbut-3-ynamide], the half-maximal inhibitory concentration (IC50) in experiment [1] and in experiment [2] was 0.1 to 100 nM throughout.
Take `COc1ccc(-c2cnn3ccnc(C4=CCC(C#N)CC4)c23)cn1` (centres unmarked) [Compound P-0087, 4-(3-(6-methoxypyridin-3-yl)pyrazolo[1,5-a]pyrazin-4-yl)cyclohex-3-ene-1-carbonitrile]: the IC50 in experiment [1] and in experiment [2] was 100 to 1000 nM each time.
As for `COc1ccc2cc(-c3cnc4[nH]ccc4c3C3=CCC(C#N)CC3)ccc2n1` (centres unmarked) [Compound P-0190, 4-(5-(2-methoxyquinolin-6-yl)-1H-pyrrolo[2,3-b]pyridin-4-yl)cyclohex-3-ene-1-carbonitrile], the IC50 in experiment [1] and in experiment [2] was 0.1 to 100 nM throughout.
`CC(C)(O)Cn1ncc2cc(-c3cnn4ccnc(C5CCC(C#N)CC5)c34)ccc21` (centres unmarked) [Compound P-0062, (1s,4s)-4-(3-(1-(2-hydroxy-2-methylpropyl)-1H-indazol-5-yl)pyrazolo[1,5-a]pyrazin-4-yl)cyclohexane-1-carbonitrile]: the IC50 in experiment [1] and in experiment [2] was 0.1 to 100 nM throughout.
Take `N#CC1CC=C(c2cccn3ncc(-c4ccc5cncnc5c4)c23)CC1` (centres unmarked) [Compound P-0119, 4-(3-(quinazolin-7-yl)pyrazolo[1,5-a]pyridin-4-yl)cyclohex-3-ene-1-carbonitrile]: the IC50 fell in the range of 0.1 to 100 nM in experiment [1] and 100 to 1000 nM in experiment [2].
For `Cc1ccc2cc(-c3cnn4cccc(C5CCC(C#N)CC5)c34)ccc2n1` (centres unmarked) [Compound P-0194, 4-(3-(2-methylquinolin-6-yl)pyrazolo[1,5-a]pyridin-4-yl)cyclohexane-1-carbonitrile], in that order: 0.1 to 100 nM and 0.1 to 100 nM.
The matching figures for `CS(=O)(=O)CCn1cc(-c2ccc(-c3cnn4ccnc(C5CCC(C#N)CC5)c34)cc2)cn1` (centres unmarked) [Compound P-0015, (1s,4s)-(3-(4-(1-(2-(methylsulfonyl)ethyl)-1H-pyrazol-4-yl)phenyl)pyrazolo[1,5-a]pyrazin-4-yl)cyclohexane-1-carbonitrile]: 0.1 to 100 nM and 0.1 to 100 nM.
For `N#CC1CCC(c2nccn3ncc(-c4ccc5c(cnn5C5CCCCO5)c4)c23)CC1` (centres unmarked) [Compound P-0109, 4-(3-(1-(tetrahydro-2H-pyran-2-yl)-1H-indazol-5-yl)pyrazolo[1,5-a]pyrazin-4-yl)cyclohexane-1-carbonitrile], in that order: 0.1 to 100 nM and 100 to 1000 nM.

For the origin of these results see US10703757B2, “Compounds and methods for CDK8 modulation and indications therefor” (Plexxikon Inc., priority 2016, dated 2020).
